Source: ChEMBL document CHEMBL1268871, “Structure and functions of gamma-dodecalactone isolated from Antrodia camphorata for NK cell activation” (Bioorg Med Chem, 2010)
Activity calls are given as the source filed them. No cut-off for these calls is given here.

Tests used:
Homo sapiens [1] = species on record: Homo sapiens; assay: Immunomodulatory activity in human PMNC assessed as induction of CD69 expression at 375 uM within 10 mins by FACS analysis; format: functional
PBMC [2] = assay: Cellular uptake in human PBMC residual solution after 10 mins by GC analysis; format: ADME, cell-based
PBMC [3] = assay: Cellular uptake in human PBMC nucleus after 2 hrs by GC analysis; format: ADME, cell-based
PBMC [4] = assay: Cellular uptake in human PBMC pellet solution after 20 mins by GC analysis; format: ADME, cell-based
PBMC [5] = assay: Cellular uptake in human PBMC pellet solution after 1 hr by GC analysis; format: ADME, cell-based
PBMC [6] = assay: Cellular uptake in human PBMC nucleus residual solution after 30 mins by GC analysis; format: ADME, cell-based; conditions: 0.5 h
PBMC [7] = assay: Cellular uptake in human PBMC pellet solution after 3 hrs by GC analysis; format: ADME, cell-based
PBMC [8] = assay: Cellular uptake in human PBMC pellet solution after 2 hrs by GC analysis; format: ADME, cell-based
PBMC [9] = assay: Cellular uptake in human PBMC residual solution after 1 hr by GC analysis; format: ADME, cell-based
[10] = Immunomodulatory activity in human PMNC assessed as induction of CD69 expression at 20 ng/ml after 24 hrs by FACS analysis; format: functional
PBMC [11] = assay: Cellular uptake in human PBMC nucleus after 20 mins by GC analysis; format: ADME, cell-based
PBMC [12] = assay: Cellular uptake in human PBMC nucleus assessed per mg of protein after 20 mins by GC analysis; format: ADME, cell-based
PBMC [13] = assay: Cellular uptake in human PBMC nucleus assessed per mg of protein after 1 hr by GC analysis; format: ADME, cell-based
PBMC [14] = assay: Cellular uptake in human PBMC nucleus residual solution after 2 hrs by GC analysis; format: ADME, cell-based
[15] = Immunomodulatory activity in human PMNC assessed as induction of FasL expression at 375 uM after 24 hrs by FITC-conjugated flow cytometry relative to control; format: functional
PBMC [16] = assay: Cellular uptake in human PBMC nucleus after 10 mins by GC analysis; format: ADME, cell-based
[17] = Cellular uptake in human NK cells at 500 uM after 20 mins by GC analysis; format: ADME, cell-based
[18] = Immunomodulatory activity in human PMNC assessed as induction of CD69 expression at 100 uM after 24 hrs by FACS analysis; format: functional
PBMC [19] = assay: Cellular uptake in human PBMC residual solution after 30 mins by GC analysis; format: ADME, cell-based; conditions: 0.5 h
PBMC [20] = assay: Cellular uptake in human PBMC pellet solution after 30 mins by GC analysis; format: ADME, cell-based; conditions: 0.5 h
NK [21] = assay: Immunomodulatory activity in human NK cells assessed as induction of CD69 gene expression at 375 uM after 4 hrs by RT-PCR analysis; format: functional, cell-based
PBMC [22] = assay: Cellular uptake in human PBMC after 2 hrs by GC analysis; format: ADME, cell-based
PBMC [23] = assay: Cellular uptake in human PBMC after 1 hr by GC analysis; format: ADME, cell-based
[24] = Metabolic stability in human NK cells assessed as conversion to 4-hydroxydodecanoic acid at 375 uM after 45 mins by RP-HPLC analysis; format: ADME, cell-based; conditions: 0.75 h
PBMC [25] = assay: Cellular uptake in human PBMC nucleus assessed per mg of protein after 10 mins by GC analysis; format: ADME, cell-based
NK [26] = assay: Immunomodulatory activity in human NK cells assessed as induction of GZMB gene expression at 375 uM after 4 hrs by RT-PCR analysis; format: functional, cell-based
HepG2 = assay: Immunomodulatory activity in human HepG2 cells assessed as induction of innate immunity-mediated cytotoxicity at 375 uM after 24 hrs by fluorescence microscopy; format: functional, cell-based
[27] = Cytotoxicity human PMNC up to 375 uM after 48 hrs by WST assay
PBMC [28] = assay: Cellular uptake in human PBMC residual solution after 20 mins by GC analysis; format: ADME, cell-based
NK [29] = assay: Immunomodulatory activity in human NK cells assessed as induction of FASLG gene expression at 375 uM after 4 hrs by RT-PCR analysis; format: functional, cell-based
[30] = Immunomodulatory activity in human PMNC assessed as induction of CD69 expression at 375 uM after 24 hrs by FACS analysis; format: functional
PBMC [31] = assay: Cellular uptake in human PBMC residual solution after 3 hrs by GC analysis; format: ADME, cell-based
PBMC [32] = assay: Cellular uptake in human PBMC pellet solution after 10 mins by GC analysis; format: ADME, cell-based
PBMC [33] = assay: Cellular uptake in human PBMC after 3 hrs by GC analysis; format: ADME, cell-based
PBMC [34] = assay: Cellular uptake in human PBMC after 30 mins by GC analysis; format: ADME, cell-based; conditions: 0.5 h
[35] = Immunomodulatory activity in human PMNC assessed as induction of CD69 expression at 200 uM after 24 hrs by FACS analysis; format: functional
PBMC [36] = assay: Cellular uptake in human PBMC residual solution after 2 hrs by GC analysis; format: ADME, cell-based
NK [37] = assay: Immunomodulatory activity in human NK cells assessed as induction of IFNG gene expression at 375 uM after 4 hrs by RT-PCR analysis; format: functional, cell-based
PBMC [38] = assay: Cellular uptake in human PBMC nucleus residual solution after 10 mins by GC analysis; format: ADME, cell-based
PBMC [39] = assay: Cellular uptake in human PBMC nucleus assessed per mg of protein after 2 hrs by GC analysis; format: ADME, cell-based
PBMC [40] = assay: Cellular uptake in human PBMC nucleus after 1 hr by GC analysis; format: ADME, cell-based
NK [41] = assay: Immunomodulatory activity in human NK cells assessed as induction of IL2 gene expression at 375 uM after 4 hrs by RT-PCR analysis; format: functional, cell-based
PBMC [42] = assay: Cellular uptake in human PBMC after 20 mins by GC analysis; format: ADME, cell-based
Homo sapiens [43] = species on record: Homo sapiens; assay: Immunomodulatory activity in human PMNC assessed as induction of CD69 expression after 24 hrs by FITC-conjugated flow cytometry; format: functional
PBMC [44] = assay: Cellular uptake in human PBMC after 10 mins by GC analysis; format: ADME, cell-based
PBMC [45] = assay: Cellular uptake in human PBMC nucleus assessed per mg of protein after 30 mins by GC analysis; format: ADME, cell-based; conditions: 0.5 h
PBMC [46] = assay: Cellular uptake in human PBMC nucleus residual solution after 1 hr by GC analysis; format: ADME, cell-based
NK [47] = assay: Immunomodulatory activity in human NK cells assessed as induction of TNF gene expression at 375 uM after 4 hrs by RT-PCR analysis; format: functional, cell-based
[48] = Immunomodulatory activity in human PMNC assessed as induction of GraB expression at 375 uM after 24 hrs by FITC-conjugated flow cytometry relative to control; format: functional
PBMC [49] = assay: Cellular uptake in human PBMC nucleus residual solution after 20 mins by GC analysis; format: ADME, cell-based
PBMC [50] = assay: Cellular uptake in human PBMC nucleus after 30 mins by GC analysis; format: ADME, cell-based; conditions: 0.5 h
[51] = Metabolic stability in human NK cells assessed as formation of 4-hydroxydodecanoic acid at 375 uM after 3 hrs by RP-HPLC analysis; format: ADME, cell-based

SMILES: CCCCCCCC[C@@H](O)CCC(=O)O
- Activity (Homo sapiens [1]): Active

SMILES: CCCCCCCC[C@H](O)CCC(=O)O
- Activity (Homo sapiens [1]): Active

SMILES: CCCCCCCC[C@H]1CCC(=O)O1
- Drug uptake (PBMC [2]): 0.02 µg
- Drug uptake (PBMC [3]): 0.658 mg/mL
- Drug uptake (PBMC [4]): 0.007 µg
- Drug uptake (PBMC [5]): 0.007 µg
- Drug uptake (PBMC [6]): 9.95 ng
- Drug uptake (PBMC [7]): 0 µg
- Drug uptake (PBMC [8]): 0 µg
- Drug uptake (PBMC [9]): 0.01 µg
- Activity [10]: 33.65%
- Drug uptake (PBMC [11]): 0.774 mg/mL
- Drug uptake (PBMC [12]): 0.013 ng
- Drug uptake (PBMC [13]): 0.001 ng
- Drug uptake (PBMC [14]): 0 ng
- fold change (FC) [15]: 2.5
- Drug uptake (PBMC [16]): 0.791 mg/mL
- Drug uptake [17]: 18.62 ng
- Activity [18]: 10.51%
- Drug uptake (PBMC [19]): 0.019 µg
- Drug uptake (PBMC [20]): 0.008 µg
- Activity (NK [21]): Active
- Drug uptake (PBMC [22]): 0.009 µg
- Drug uptake (PBMC [23]): 0.017 µg
- Activity [24]: 29%
- Drug uptake (PBMC [25]): 0.011 ng
- Activity (NK [26]): Active
- Activity (HepG2): Active
- Activity [27]: Non-toxic
- Drug uptake (PBMC [28]): 0.015 µg
- Activity (NK [29]): Active
- Activity [30]: 19.37%
- Drug uptake (PBMC [31]): 0 µg
- Drug uptake (PBMC [32]): 0 µg
- Drug uptake (PBMC [33]): 0 µg
- Drug uptake (PBMC [34]): 0.027 µg
- Activity [35]: 13.58%
- Drug uptake (PBMC [36]): 0.009 µg
- Activity (NK [37]): Active
- Drug uptake (PBMC [38]): 8.44 ng
- Drug uptake (PBMC [39]): 0 ng
- Drug uptake (PBMC [40]): 0.9 mg/mL
- Activity (NK [41]): Active
- Drug uptake (PBMC [42]): 0.022 µg
- Activity (Homo sapiens [43]): Dose-dependent effect
- Drug uptake (PBMC [44]): 0.02 µg
- Drug uptake (PBMC [45]): 0.016 ng
- Drug uptake (PBMC [46]): 8.4 ng
- Activity (NK [47]): Active
- fold change (FC) [48]: 1.5
- Drug uptake (PBMC [49]): 9.95 ng
- Drug uptake (PBMC [50]): 0.618 mg/mL

SMILES: CCCCCCCCC(O)CCC(=O)O (centres undefined)
- Activity (Homo sapiens [1]): Active
- Stability [51]: Unstable
